Test results reported in patent US9540691B2, “Assays and methods for selecting a treatment regimen for a subject with depression” (THE GENERAL HOSPITAL CORPORATION, priority 2011, dated 2017).
Where two headings read alike, the source gives them in different places.

Tested on: MDD patients carrying the indicated conditions
Conditions: with SSRI
Method: Folate levels are classified as either low (<=2.5 ng/ml) or normal; and homocysteine levels as either normal or elevated (>=[…]). The presence or absence of at least one […] allele for the MTHFR gene are entered as a dichotomous variable (present or absent). […] Using folate as an example predicator, the presence or absence of a low serum-folate level along with treatment assignment can be entered in a 2×2, factorial ANOVA, using depression improvement scores (baseline minus endpoint HAM-D-17 scores) as the dependant variable. […] Similar analyses (i.e. separate 2×2 ANOVA's) can be performed substituting the presence of low folate levels for the presence of other predictors as described herein. Similarly, the effect of other predictors can be indicated by the interaction term representing the potential modulating influence of those variables.
Particularly, specific genetic and biomarkers that were assessed include the following: • (a) BMI calculation of at least about 30 kg/m^2; • (b) an expression ratio of SAM/SAH smaller than 2.8 (e.g., 2.71) as measured in a plasma sample; • (c) a level of 4-HNE no less than 3.28 μg/mL (as measured in a plasma sample); • (d) presence of rare variants CT or TT at position 677 of SEQ ID NO: 1 corresponding to a portion of a genomic nucleic acid sequence of methylenetetrahydrofolate reductase (MTHFR) (abbreviated as “MTHFR 677” below); • (e) presence of rare variants AG or GG at position 2756 of SEQ ID NO: 2 corresponding to a portion of genomic nucleic acid sequence of methionine synthase (MTR) (abbreviated as “MTR 2756” below); and • (f) presence of rare variants AG or GG at position 66 of SEQ ID NO: 3 corresponding to a portion of genomic nucleic acid sequence of methionine synthase reductase (MTRR) (abbreviated as “MTRR 66” below).
The efficacy effect is determined by measuring the mean change in the HAMD-17 score and HAMD-28 score by the end of Phase I and Phase II, as compared to the baseline.

[1] = Phase II, interaction of BMI with the treatment
[2] = Phase II, interaction of HNE-his with the treatment
[3] = Phase II, interaction of SAM/SAH with the treatment
[4] = Pooled phases, 25 =< BMI < 30 kg/m^2 (18, 10)
[5] = Pooled phases, BMI < 25 (14, 7)

## CN1c2c(nc(N)[nH]c2=O)NC[C@@H]1CNc1ccc(C(=O)N[C@@H](CCC(=O)O)C(=O)O)cc1 [6(S)-5-MTHF, 6(S)-5-methyltetrahydrofolate]
Phase II, MTR 2756 AA and MTRR 66 AA
  Effect, change in HAMD-28 score: −8.000
Phase II, MTR 2756 AA and SAM/SAH >= median (24,12)
  Effect, change in HAMD-17 score: 1.971
Phase II, MTR 2756 AA and SAM/SAH >= median
  Effect, change in HAMD-28 score: 2.000
Phase II, MTR 2756 AA
  Effect, change in HAMD-28 score: −0.446
Phase II, MTR 2756 AG or GG and BMI >= 30 kg/m^2 (10,5)
  Effect, change in HAMD-17 score: −12.167
Phase II, MTR 2756 AG or GG and BMI >= 30 kg/m^2
  Effect, change in HAMD-28 score: −13.000
Phase II, MTR 2756 AG or GG and HNE-His >= median (13,7)
  Effect, change in HAMD-17 score: −8.417
Phase II, MTR 2756 AG or GG and HNE-His >= median = 3.28 (plasma sample)
  Effect, change in HAMD-28 score: −9.500
Phase II, MTR 2756 AG or GG and MTRR 66 AG or GG (15,7)
  Effect, change in HAMD-17 score: −4.667
Phase II, MTR 2756 AG or GG and MTRR 66 AG or GG and BMI >= 30 kg/m^2 (8,4)
  Effect, change in HAMD-17 score: −11.000
Phase II, MTR 2756 AG or GG and MTRR 66 AG or GG and BMI >= 30 kg/m^2
  Effect, change in HAMD-28 score: −12.000
Phase II, MTR 2756 AG or GG and MTRR 66 AG or GG and HNE-His >= median (10,4)
  Effect, change in HAMD-17 score: −11.000
Phase II, MTR 2756 AG or GG and MTRR 66 AG or GG and HNE-His >= median
  Effect, change in HAMD-28 score: −12.000
Phase II, MTR 2756 AG or GG and MTRR 66 AG or GG and SAM/SAH < median (8,3)
  Effect, change in HAMD-17 score: −6.500
Phase II, MTR 2756 AG or GG and MTRR 66 AG or GG and SAM/SAH < median = 2.71 (plasma sample)
  Effect, change in HAMD-28 score: −10.500
Phase II, MTR 2756 AG or GG and MTRR 66 AG or GG
  Effect, change in HAMD-28 score: −6.583
Phase II, MTR 2756 AG or GG and SAM/SAH < median (10,4)
  Effect, change in HAMD-17 score: −2.500
Phase II, MTR 2756 AG or GG and SAM/SAH < median = 2.71 (plasma sample)
  Effect, change in HAMD-28 score: −7.500
Phase II, MTR 2756 AG/GG (20,11)
  Effect, change in HAMD-17 score: −3.600
Phase II, MTR 2756 AG/GG
  Effect, change in HAMD-28 score: −5.300
Phase II, MTRR 66 AA and HNE-His < median (8,5)
  Effect, change in HAMD-17 score: −1.667
Phase II, MTRR 66 AA and HNE-His < median = 3.28 (plasma sample)
  Effect, change in HAMD-28 score: −2.000
Phase II, MTRR 66 AA and SAM/SAH >= median (9,6)
  Effect, change in HAMD-17 score: −3.000
Phase II, MTRR 66 AA and SAM/SAH >= median
  Effect, change in HAMD-28 score: −3.333
Phase II, MTRR 66 AG or GG and HNE-His >= median (24,11)
  Effect, change in HAMD-17 score: −3.500
Phase II, MTRR 66 AG or GG and HNE-His >= median
  Effect, change in HAMD-28 score: −4.071
Phase II, MTRR 66 AG or GG and SAM/SAH < median (24,10)
  Effect, change in HAMD-17 score: −6.190
Phase II, MTRR 66 AG or GG and SAM/SAH < median = 2.71 (plasma sample)
  Effect, change in HAMD-28 score: −7.381
Phase II, SAM/SAH < median and HNE-His >= median (19,7)
  Effect, change in HAMD-17 score: −9.000
Phase II, SAM/SAH < median and HNE-His >= median
  Effect, change in HAMD-28 score: −12.000
Phase II, SAM/SAH >= median and HNE-His < median (18,8)
  Effect, change in HAMD-17 score: 4.000
Phase II, SAM/SAH >= median and HNE-His < median
  Effect, change in HAMD-28 score: 4.500
[1]
  Effect, change in HAMD-17 score: BMI*treat: 0.113
  Effect, change in HAMD-28 score: BMI*treat: 0.082
[2]
  Effect, change in HAMD-17 score: HNE-his*treat: 2.027
  Effect, change in HAMD-28 score: HNE-his*treat: 2.362
[3]
  Effect, change in HAMD-17 score: SAM/SAH*treat: 1.483
  Effect, change in HAMD-28 score: SAM/SAH*treat (last line): 1.806
Phase II, interaction of base HAMD-17 with the treatment
  Effect, change in HAMD-17 score: baseHAMD-17*treat: −0.249
Phase II, interaction with the treatment
  Effect, change in HAMD-28 score: SAM/SAH*treat (first line under HAMD28): 1.483
[4]
  Effect, change in HAMD-17 score: 3.331
  Effect, change in HAMD-28 score: 2.054
[5]
  Effect, change in HAMD-17 score: −1.248
  Effect, change in HAMD-28 score: −1.018
Pooled phases, BMI < 30 kg/m^2 and HNE-His < median (19, 9)
  Effect, change in HAMD-17 score: 4.738
Pooled phases, BMI < 30 kg/m^2 and HNE-His < median
  Effect, change in HAMD-28 score: 4.253
Pooled phases, BMI < 30 kg/m^2 and SAM/SAH >= median (16,8)
  Effect, change in HAMD-17 score: 2.583
Pooled phases, BMI < 30 kg/m^2 and SAM/SAH >= median
  Effect, change in HAMD-28 score: 2.906
Pooled phases, BMI >= 30 kg/m^2 (40,21)
  Effect, change in HAMD-28 score: −4.660
Pooled phases, BMI >= 30 kg/m^2 and HNE-His >= median (23, 11)
  Effect, change in HAMD-17 score: −5.420
Pooled phases, BMI >= 30 kg/m^2 and SAM/SAH < median (21,9)
  Effect, change in HAMD-17 score: −7.302
Pooled phases, BMI >= 30 kg/m^2 and SAM/SAH < median = 2.71 (plasma sample)
  Effect, change in HAMD-28 score: −7.572
Pooled phases, MTHFR 677 CC and BMI < 30 kg/m^2 (17,8)
  Effect, change in HAMD-17 score: 1.356
Pooled phases, MTHFR 677 CC and BMI < 30 kg/m^2
  Effect, change in HAMD-28 score: −0.234
Pooled phases, MTHFR 677 CC and HNE-His < median (20,11)
  Effect, change in HAMD-17 score: −1.050
Pooled phases, MTHFR 677 CC and HNE-His < median = 3.28 (plasma sample)
  Effect, change in HAMD-28 score: −1.340
